The target of the first test is T1, human growth hormone secretagogue receptor (hGHS-R1a) (Homo sapiens, UniProt Q92847).
T1 construct: purchased PerkinElmer BioSignal #RBHGHSM; host or cells: HEK-293, stably transfected
T1 sequence (Q92847 whole entry): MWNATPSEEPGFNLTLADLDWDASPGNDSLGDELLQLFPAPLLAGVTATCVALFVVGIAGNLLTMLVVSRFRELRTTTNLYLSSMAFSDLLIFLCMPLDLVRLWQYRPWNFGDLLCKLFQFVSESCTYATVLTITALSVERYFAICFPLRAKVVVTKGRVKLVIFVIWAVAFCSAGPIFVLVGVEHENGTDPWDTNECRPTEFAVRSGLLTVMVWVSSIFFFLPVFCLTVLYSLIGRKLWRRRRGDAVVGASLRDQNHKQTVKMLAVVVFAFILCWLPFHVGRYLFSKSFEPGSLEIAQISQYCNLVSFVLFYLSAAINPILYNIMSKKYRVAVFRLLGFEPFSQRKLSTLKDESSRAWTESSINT
In words: Competitive radioligand binding assay (ghrelin receptor), [125I]-ghrelin displacement on GHS-R/HEK 293 membranes.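 On Binding Activity at the Human Ghrelin Receptor (Ki): symbols B 10-100 nM C 0.1-1 µM D 1-10 µM F above 1 µM G above 10 µM.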 The note with it: Binding activity at the human ghrelin receptor, [125I]-ghrelin displacement; read-out: Ki. As for the experimental part:
The competitive binding assay at the human growth hormone secretagogue receptor (hGHS-R1a) was carried out analogously to assays described in the literature.
Multiscreen Harvest plates-GF/C (Millipore, #MAHFC1H60) • 4. […] Bottom seal (Millipore, #MATAH0P00) • 7. […] Binding Buffer: 25 mM Hepes (pH 7.4), 1 mM CaCl2, 5 mM MgCl2, 2.5 mM EDTA, 0.4% BSA
Competition experiments were performed in a 300 μl filtration assay format. • 1. 220 μL of membranes diluted in binding buffer • 2. 40 μL of compound diluted in binding buffer • 3.
Compounds were provided frozen on dry ice at a stock concentration of 10 mM diluted in 100% DMSO and stored at −80° C. until the day of testing. On the test day, compounds were allowed to thaw at rt O/N and then diluted in assay buffer according to the desired test concentrations. Under these conditions, the maximal final DMSO concentration in the assay was 0.1%.
Plates were sealed with TopSeal-A, vortexed gently and incubated at rt for 30 min. The reaction was arrested by filtering samples through Multiscreen Harvest plates (pre-soaked in 0.5% polyethyleneimine) using a Tomtec Harvester, washed 9 times with 500 μL of cold 50 mM Tris-HCl (pH 7.4, 4° C.), and then plates were air-dried in a fumehood 30 min. A bottom seal was applied to the plates prior to the addition of 25 μL of MicroScint-0 to each well. […] Results were expressed as counts per minute (cpm).
Data were analyzed by GraphPad Prism (GraphPad Software, San Diego, Calif.) using […] non-linear regression analysis.
where total and non-specific binding represent the cpm obtained in the absence or presence of 1 μM ghrelin, respectively.
• 1. Binding performed on membranes prepared from HEK293 expressing the transfected, cloned human ghrelin receptor (hGHS-R1a). • 2. […] Ghrelin (unlabeled, 1 μM) was used to determine non-specific binding. • 4.
For `CCC[C@@H]1NCCOc2ccccc2CCCNC(=O)[C@@H](CCC(=O)O)NC(=O)CN(C)C1=O` [compound 50], the Ki – broadly, a dissociation constant, usually derived from enzyme kinetics or from competition with a known ligand – is over 10000 nM.

With `CCC[C@@H]1NCCOc2ccccc2CCCNC(=O)[C@@H](C)NC(=O)CN(C)C1=O` [compound 49], the Ki was over 10000 nM.

On to `CCC[C@H]1NCCOc2ccccc2CCCNC(=O)[C@@H](Cc2ccccc2)NC(=O)CN(C)C1=O` [compound 55], for which the Ki lay within 1000 to 10000 nM.

On to `CCC[C@@H]1NCCOc2ccccc2CCCNC(=O)[C@@H](Cc2ccccc2)NC(=O)[C@@H](CCC(=O)O)NC1=O` [compound 71], for which the Ki was over 10000 nM.

For `CC(C)C[C@@H]1NCCOc2ccccc2CCCNC(=O)[C@H](CCCCN)NC(=O)C2(CCCC2)NC1=O` [compound 91], the Ki is over 10000 nM.

`CC[C@@H]1NCCOc2ccccc2CCCNC(=O)[C@@H](Cc2ccccc2)NC(=O)[C@@H](C)N(C)C1=O` [compound 117]: the Ki lay within 10 to 100 nM.

In the case of `CC(C)C[C@H]1NCCOc2ccccc2CCCNC(=O)[C@H](Cc2ccccc2)NC(=O)C2(CCCC2)NC1=O` [compound 96], the inhibition constant Ki was over 10000 nM.

For `CCC[C@@H]1NCCOc2ccccc2CCCNC(=O)[C@@H](Cc2ccccc2)NC(=O)C2(CCCC2)NC1=O` [compound 67], the Ki fell in the range of 100 to 1000 nM.

With `CC(C)C[C@@H]1NCCOc2ccccc2CCCNC(=O)[C@@H](Cc2ccccc2)NC(=O)[C@@H](C)N(C)C1=O` [compound 118], the Ki is 10 to 100 nM.

For the compound `CC(C)C[C@@H]1NCCOc2ccccc2CCCNC(=O)[C@H](CCC(=O)O)NC(=O)C2(CCCC2)NC1=O` [compound 92], the Ki was over 10000 nM.

On to `CCC[C@@H]1NCCOc2ccccc2CCCNC(=O)[C@@H](Cc2ccccc2)NC(=O)[C@H](CC(C)C)NC1=O` [compound 62], for which the Ki was in the range of 1000 to 10000 nM.

As to `O=C1NC2(CCCC2)C(=O)N[C@@H](Cc2ccccc2)C(=O)NC/C=C/c2ccccc2OCCN[C@H]1Cc1ccc(F)cc1` [compound 125], the Ki was over 10000 nM.

Regarding `O=C1NC2(CCCC2)C(=O)N[C@@H](Cc2ccccc2)C(=O)NCCCc2ccccc2OCCN[C@H]1CO` [compound 105], the Ki lay in the range of 100 to 1000 nM.

In the case of `CCCC1NCC/C=C/CCNC(=O)C(Cc2ccccc2)NC(=O)CN(C)C1=O` (stereo not drawn) [compound 83], the Ki is over 10000 nM.

For the compound `COc1ccc(C[C@@H]2NCCOc3ccccc3/C=C/CNC(=O)[C@H](Cc3ccccc3)NC(=O)C3(CCCC3)NC2=O)cc1` [compound 127], the Ki is 100 to 1000 nM.

The test is the same for the next values; noted with them: Table 3B; binding activity at the human ghrelin receptor; read-out: Ki.
Regarding `C[C@@H]1C(=O)N[C@H](Cc2ccc(F)cc2)C(=O)NCCC=CCOCCN[C@@H](C2CC2)C(=O)N1C` [compound 307], the Ki is 100 to 1000 nM.

Regarding `C[C@@H]1C(=O)N[C@H](Cc2cc(F)cc(F)c2)C(=O)NCCCc2ccccc2OCCN[C@@H](C2CC2)C(=O)N1C` [compound 317], the Ki lay in the range of 10 to 100 nM.

For the compound `C[C@@H]1C(=O)N[C@H](Cc2cccc(F)c2)C(=O)NCCCc2ccccc2OCCN[C@@H](C2CC2)C(=O)N1C` [compound 313], the Ki fell in the range of 10 to 100 nM.

In the case of `CC1C(=O)NC(Cc2ccc(F)cc2)C(=O)NCC2CC2c2ccccc2OCCNC(C2CC2)C(=O)N1C` (stereo not drawn) [compound 379], the Ki was 10 to 100 nM.

As for `CC[C@H](C)[C@@H]1NCCOc2ccccc2[C@@H]2C[C@@H]2CNC(=O)[C@H](Cc2cccc(Cl)c2)NC(=O)C2(CCCC2)NC1=O` [compound 387], the inhibition constant (Ki) was 100 to 1000 nM.

`CC[C@H](C)[C@@H]1NCCOc2cc(F)ccc2CCCNC(=O)[C@H](Cc2cccc(Cl)c2)NC(=O)C2(CCCC2)NC1=O` [compound 383]: the inhibition constant Ki lay in the range of 100 to 1000 nM.

`CC[C@H](C)[C@@H]1NCCCc2ccccc2CCCCNC(=O)[C@H](Cc2cccc(Cl)c2)NC(=O)C2(CCCC2)NC1=O` [compound 371]: the Ki lay within 10 to 100 nM.

Turning to `CCC(C)[C@@H]1NCCCc2ccccc2/C=C/CNC(=O)[C@@H](Cc2ccc(F)cc2)NC(=O)[C@@H](C)N(C)C1=O` (stereo partly drawn) [353a], the Ki was 10 to 100 nM.

As to `C[C@@H]1C(=O)N[C@H](Cc2ccc(I)cc2)C(=O)NCCCc2ccccc2OCCN[C@@H](C2CC2)C(=O)N1C` [compound 320], the Ki lay within 0.1 to 10 nM.

As to `CC[C@H](C)[C@@H]1NCCCNCCNC(=O)[C@H](Cc2cccc(Cl)c2)NC(=O)C2(CCCC2)NC1=O` [compound 390], the Ki was 100 to 1000 nM.

As for `C[C@@H]1C(=O)N[C@H](Cc2ccc(Cl)c(Cl)c2)C(=O)NCCCc2ccccc2OCCN[C@@H](C2CC2)C(=O)N1C` [compound 315], the Ki was 0.1 to 10 nM.

On to `CCC(C)[C@@H]1NCCOc2ccccc2/C=C/CNC(=O)[C@H](Cc2ccc(F)c(F)c2)NC(=O)C2(CCCC2)NC1=O` (stereo partly drawn) [331a], for which the Ki is 10 to 100 nM.

As for `CC[C@H](C)[C@@H]1NCCOc2ccccc2C(C)(C)CCNC(=O)[C@H](Cc2cccc(Cl)c2)NC(=O)C2(CCCC2)NC1=O` [compound 359], the Ki was in the range of 100 to 1000 nM.

With `COc1ccc(C[C@H]2NC(=O)[C@@H](C)N(C)C(=O)[C@H](C3CC3)NCCOc3ccccc3CCCNC2=O)cc1OC` [compound 323], the Ki was in the range of 100 to 1000 nM.

`CC[C@H](C)[C@@H]1NCCOc2ccc(Cl)cc2CCCNC(=O)[C@H](Cc2cccc(Cl)c2)NC(=O)C2(CCCC2)NC1=O` [compound 384]: the Ki lay within 100 to 1000 nM.

As to `C[C@@H]1C(=O)N[C@H](Cc2ccc(F)cc2)C(=O)NC/C=C\c2ccccc2OCCN[C@@H](C2CC2)C(=O)N1C` [compound 400], the inhibitory constant (Ki) lay in the range of 10 to 100 nM.

For the compound `C[C@@H]1C(=O)N[C@H](Cc2ccccc2F)C(=O)NCCCc2ccccc2OCCN[C@@H](C2CC2)C(=O)N1C` [compound 312], the Ki was in the range of 0.1 to 10 nM.

In the case of `CC[C@H](C)[C@@H]1NCCCCCCCNC(=O)[C@H](Cc2cccc(Cl)c2)NC(=O)C2(CCCC2)NC1=O` [compound 366], the Ki lay within 100 to 1000 nM.

As to `C[C@@H]1C(=O)N[C@H](Cc2ccc(F)cc2)C(=O)NCCCc2ccccc2OCCN[C@@H](C2CC2)C(=O)N1C` [compound 309], the Ki is 0.1 to 10 nM.

Take `C[C@@H]1C(=O)N[C@H](Cc2ccc(F)cc2)C(=O)NCCCc2cc(Cl)ccc2OCCN[C@@H](C2CC2)C(=O)N1C` [compound 373]: the Ki lay in the range of 10 to 100 nM.

In the case of `CC[C@H](C)[C@@H]1NCCOc2ccccc2/C=C\CNC(=O)[C@H](Cc2cccc(Cl)c2)NC(=O)C2(CCCC2)NC1=O` [compound 380], the Ki lay within 100 to 1000 nM.

`CCC(C)C1NCCCc2ccccc2C=CCCNC(=O)C(Cc2cccc(Cl)c2)NC(=O)C2(CCCC2)NC1=O` (stereo not drawn) [compound 361]: the Ki lay in the range of 100 to 1000 nM.

Take `CCC(C)C1NCCOc2ccccc2C=CCNC(=O)C(Cc2ccsc2)NC(=O)C2(CCCC2)NC1=O` (stereo not drawn) [compound 333]: the Ki is 100 to 1000 nM.

For the compound `CC[C@H](C)[C@@H]1NCc2ccccc2CCCCCNC(=O)[C@H](Cc2cccc(Cl)c2)NC(=O)C2(CCCC2)NC1=O` [compound 362], the Ki lay in the range of 100 to 1000 nM.

Still in this test, the particulars now being: Table 3D; read-out: Ki.
As for `CC(C)C[C@@H]1NCCOc2ccccc2/C=C/CNC(=O)[C@H](Cc2c[nH]cn2)NC(=O)C2(CCCC2)NC1=O` [444a], the Ki is over 10000 nM.

Consider `CC[C@H](C)[C@@H]1NCCOc2ccccc2CCCNC(=O)[C@@H](Cc2ccc(F)cc2)NC(=O)[C@@H](COCc2ccccc2)N(C)C1=O` [compound 440], for which the Ki fell in the range of 100 to 1000 nM.

With `CC[C@H](C)[C@@H]1NCCOc2ncccc2CCCNC(=O)[C@H](Cc2cccc(Cl)c2)NC(=O)C2(CCCC2)NC1=O` [compound 449], the Ki lay within 1000 to 10000 nM.

For the compound `CC(C)C[C@@H]1NC[C@@H](C)Oc2ccccc2CCCNC(=O)[C@H](Cc2cccc(Cl)c2)NC(=O)C2(CCCC2)NC1=O` [compound 438], the Ki is 1000 to 10000 nM.

The test is the same for the next values; noted with them: Table 3E; read-out: Ki.
Regarding `CCC[C@@H]1NCCOc2ccccc2CCCNC(=O)[C@@H](Cc2ccccc2)NC(=O)[C@H]2CCCN2C1=O` [Compound 221], the Ki fell in the range of 100 to 1000 nM.

The same test, now with this note: [125I]-ghrelin displacement, GHS-R/HEK 293 membranes; class symbols; read-out: Binding Activity at the Human Ghrelin Receptor (Ki).
On to `CC[C@H](C)[C@@H]1NCCCc2ccccc2CCNC(=O)[C@@H](Cc2ccccc2)NC(=O)[C@@H](C)N(C)C1=O` [compound 179], for which the Ki lay within 100 to 1000 nM.

Regarding `CCC[C@@H]1NCCOc2ccccc2CCCNC(=O)[C@@H](Cc2ccccc2)NC(=O)[C@H]2CCCN2C1=O` [Compound 221], the Ki was in the range of 100 to 1000 nM.

With `O=C1NC2(CCCC2)C(=O)N[C@@H](Cc2ccccc2)C(=O)NC/C=C/c2ccccc2OCCN[C@H]1Cc1ccccn1` [compound 210], the Ki is over 1000 nM.

`CCC[C@H]1C(=O)N(C)[C@H](C)C(=O)N[C@H](Cc2ccccc2)C(=O)NCCCc2ccccc2OCCN1C(C)=O` [compound 202]: the Ki was over 10000 nM.

Consider `CC(C)[C@@H]1NCCOc2ccccc2/C=C/CNC(=O)[C@H](Cc2ccccc2)NC(=O)C2(CCCC2)NC1=O` [compound 200], for which the Ki lay in the range of 10 to 100 nM.

Consider `O=C1NC/C=C/c2ccccc2OCCNC2(CCCCC2)C(=O)NC2(CCCC2)C(=O)N[C@H]1Cc1ccccc1` [compound 218], for which the Ki was in the range of 10 to 100 nM.

Regarding `CC[C@H](C)[C@@H]1NCCCCc2ccccc2CCNC(=O)[C@@H](Cc2ccccc2)NC(=O)[C@@H](C)N(C)C1=O` [compound 180], the Ki fell in the range of 100 to 1000 nM.

Source of the values: patent US20180110824A1, “Macrocyclic Modulators of the Ghrelin Receptor” (Ocera Therapeutics, Inc., priority 2016, published 2018).
